target: T1, human capsaicin receptor (Homo sapiens, UniProt Q8NER1); experiment: Calcium mobilization assay (Example 6); assay type: cell-based; details: concentration required to provide a 50% decrease in the fluorescence response of cells exposed to one IC50 of capsaicin
T1 construct: A cDNA encoding full length human capsaicin receptor recited in U.S. Pat. No. 6,482,611 was subcloned in the plasmid pBK-CMV; expressed in transfected cells
Description: Human embryonic kidney (HEK293) cells were transfected with the pBK-CMV expression construct encoding the full length human capsaicin receptor using standard methods. The transfected cells were selected for two weeks in media containing G418 (400 μg/ml) to obtain a pool of stably transfected cells. Independent clones were isolated from this pool by limiting dilution to obtain clonal stable cell lines for use in subsequent experiments.
Cells transfected with expression plasmids (as described in Example 4) and thereby expressing human capsaicin receptor are seeded and grown to 70-90% confluency in FALCON black-walled, clear-bottomed 96-well plates (#3904, BECTON-DICKINSON, Franklin Lakes, N.J.). The culture medium is emptied from the 96 well plates and FLUO-3 AM calcium sensitive dye (Molecular Probes, Eugene, Oreg.) is added to each well (dye solution: 1 mg FLUO-3 AM, 440 μL DMSO and 440 μl 20% pluronic acid in DMSO, diluted 1:250 in Krebs-Ringer HEPES (KRH) buffer (25 mM HEPES, 5 mM KCl, 0.96 mM NaH2PO4, 1 mM MgSO4, 2 mM CaCl2, 5 mM glucose, 1 mM probenecid, pH 7.4), 50 μl diluted solution per well). Plates are covered with aluminum foil and incubated at 37° C. for 1-2 hours in an environment containing 5% CO2. After the incubation, the dye is emptied from the plates, and the cells are washed once with KRH buffer, and, resuspended in KRH buffer.
Agonist (e.g., olvanil, capsaicin, or RTX)-induced calcium mobilization is monitored using either FLUOROSKAN ASCENT (Labsystems, Franklin, Mass.) or FLIPR (fluorometric imaging plate reader system, Molecular Devices, Sunnyvale, Calif.) instruments. Varying concentrations of the antagonists ruthenium red or capsazepine (RBI; Natick, Mass.) are added to cells concurrently with agonist (e.g., 25-50 nM capsaicin). For agonist-induced calcium responses, data obtained between 30 and 60 seconds after agonist application are used to generate the IC50 values. KALEIDAGRAPH software (Synergy Software, Reading, Pa.) is used to fit the data to the equation: y=a*(1/(1+(b/x)^c)) to determine the IC50 for the response. In this equation, y is the maximum fluorescence signal, x is the concentration of the agonist or antagonist, a is the Emax, b corresponds to the IC50 value and c is the Hill coefficient.
To measure the ability of a test compound to antagonize (inhibit) the response of cells expressing capsaicin receptors to capsaicin or other vanilloid agonist, the IC50 of capsaicin is first determined. An additional 20 μl of KRH buffer and 1 μl DMSO is added to each well of cells, prepared as described above. 100 μl capsaicin in KRH buffer is automatically transferred by the FLIPR instrument to each well. An 8-point concentration response curve, with final capsaicin concentrations of 1 nM to 3 μM, is used to determine capsaicin IC50.
Test compounds are dissolved in DMSO, diluted in 20 μl KRH buffer so that the final concentration of test compounds in the assay well is between 1 μM and 5 μM, and added to cells prepared as described above. The 96 well plates containing prepared cells and test compounds are incubated in the dark, at room temperature for 0.5 to 6 hours. It is important that the incubation not continue beyond 6 hours. Just prior to determining the fluorescence response, 100 μl capsaicin in KRH buffer at twice the IC50 concentration determined from the concentration response curve is automatically added by the FLIPR instrument to each well of the 96 well plate for a final sample volume of 200 μl and a final capsaicin concentration equal to the IC50. The final concentration of test compounds in the assay wells is between 1 μM and 5 μM. […] Antagonists of the capsaicin receptor decrease this response by at least about 20%, preferably by at least about 50%, and most preferably by at least 80% as compared to matched control. The concentration of antagonist required to provide a 50% decrease is the IC50 for the antagonist, and is preferably below 1 micromolar, 100 nanomolar, 10 nanomolar or 1 nanomolar. […]

T1 sequence (Q8NER1 whole entry): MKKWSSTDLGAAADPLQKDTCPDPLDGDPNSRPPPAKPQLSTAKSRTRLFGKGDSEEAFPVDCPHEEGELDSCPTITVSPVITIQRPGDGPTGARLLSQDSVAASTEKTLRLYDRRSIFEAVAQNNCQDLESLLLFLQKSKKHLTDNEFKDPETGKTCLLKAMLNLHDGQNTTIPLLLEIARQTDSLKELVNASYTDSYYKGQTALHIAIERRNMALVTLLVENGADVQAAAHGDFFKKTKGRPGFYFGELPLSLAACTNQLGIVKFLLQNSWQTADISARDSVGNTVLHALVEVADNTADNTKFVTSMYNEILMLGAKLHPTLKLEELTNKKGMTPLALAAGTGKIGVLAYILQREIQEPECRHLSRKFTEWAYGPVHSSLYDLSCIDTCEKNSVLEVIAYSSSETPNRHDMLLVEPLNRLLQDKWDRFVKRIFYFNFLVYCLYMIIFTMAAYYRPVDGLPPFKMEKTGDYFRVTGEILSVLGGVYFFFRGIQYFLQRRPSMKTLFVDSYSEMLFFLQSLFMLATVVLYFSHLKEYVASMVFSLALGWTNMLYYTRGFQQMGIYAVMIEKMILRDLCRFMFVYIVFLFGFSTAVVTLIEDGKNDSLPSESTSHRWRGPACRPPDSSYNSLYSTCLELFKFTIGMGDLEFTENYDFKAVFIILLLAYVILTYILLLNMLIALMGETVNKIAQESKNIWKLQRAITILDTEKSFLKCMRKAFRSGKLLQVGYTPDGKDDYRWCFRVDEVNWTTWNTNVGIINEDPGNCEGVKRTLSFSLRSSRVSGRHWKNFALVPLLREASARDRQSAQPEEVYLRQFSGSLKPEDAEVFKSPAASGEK

| IC50 [nM] | SMILES |
| --- | --- |
| ≤ 1000 | Cc1cccnc1-c1ccc2c(Nc3ccc(C(F)(F)F)cn3)ccnc2n1 [Compound 135, 7-(3-methylpyridin-2-yl)-N-[5-(trifluoromethyl)pyridin-2-yl]-1,8-naphthyridin-4-amine] |
| ≤ 1000 | FC(F)(F)c1ccc(Nc2cc(CN3CCC3)nc3nc(-c4ncccc4C(F)(F)F)ccc23)cc1 [Compound 55, 2-(azetidin-1-ylmethyl)-N-[4-(trifluoromethyl)phenyl]-7-[3-(trifluoromethyl)pyridin-2-yl]-1,8-naphthyridin-4-amine] |
| ≤ 1000 | CN(Cc1cc(Nc2ccc(C(F)(F)F)cc2)c2ccc(-c3ncccc3C(F)(F)F)nc2n1)S(C)(=O)=O [Compound 70, N-methyl-N-({4-{[4-(trifluoromethyl)phenyl]amino}-7-[3-(trifluoromethyl)pyridin-2-yl]-1,8-naphthyridin-2-yl}methyl)methanesulfonamide] |
| ≤ 1000 | CCCN(CCCO)Cc1cc(Nc2ccc(C(F)(F)F)cc2)c2ccc(-c3ncccc3C(F)(F)F)nc2n1 [Compound 79] |
| ≤ 1000 | COc1cc(Nc2ccc(C(F)(F)F)cn2)c2ccc(-c3ncccc3C(F)(F)F)nc2n1 [Compound 96, 2-methoxy-7-[3-(trifluoromethyl)pyridin-2-yl]-N-[5-(trifluoromethyl)pyridin-2-yl]-1,8-naphthyridin-4-amine] |
| ≤ 1000 | CCCc1cc(Nc2ccc(C(C)(C)O)cn2)c2ccc(-c3ncccc3C(F)(F)F)nc2n1 [Compound 117, 2-[6-({2-propyl-7-[3-(trifluoromethyl)pyridin-2-yl]-1,8-naphthyridin-4-yl}amino)pyridin-3-yl]propan-2-ol] |
| ≤ 1000 | C[C@@H](OCc1cc(Nc2ccc(C(F)(F)F)cc2)c2ccc(-c3ncccc3C(F)(F)F)nc2n1)C(C)(C)O [Compound 86, 2-methyl-3-({4-{[4-(trifluoromethyl)phenyl]amino}-7-[3-(trifluoromethyl)pyridin-2-yl]-1,8-naphthyridin-2-yl}methoxy)butan-2-ol] |
| ≤ 1000 | FC(F)(F)c1ccc(Nc2ccnc3nc(-c4ncccc4C(F)(F)F)ccc23)cc1 [Compound 35, N-[4-(trifluoromethyl)phenyl]-7-[3-(trifluoromethyl)pyridin-2-yl]-1,8--naphthyridin-4-amine] |
| ≤ 1000 | CCN(CC)Cc1cc(Nc2ccc(C(F)(F)F)cn2)c2ccc(-c3ncccc3C(F)(F)F)nc2n1 [Compound 94, 2-[(diethylamino)methyl]-7-[3-(trifluoromethyl)pyridin-2-yl]-N-[5-(trifluoromethyl)pyridin-2-yl]-1,8-naphthyridin-4-amine] |
| ≤ 1000 | CCCc1cc(Nc2ccc(C(F)(F)F)cn2)c2ccc(-c3ncccc3C(F)(F)F)nc2n1 [Compound 114, 2-propyl-7-[3-(trifluoromethyl)pyridin-2-yl]-N-[5-(trifluoromethyl)pyridin-2-yl]-1,8-naphthyridin-4-amine] |
| ≤ 1000 | COCc1cc(Nc2ccc3c(c2)CN(C)CC3(C)C)c2ccc(-c3ncccc3C(F)(F)F)nc2n1 [Compound 17, 2-(methoxymethyl)-7-[3-(trifluoromethyl)pyridin-2-yl]-N-(2,4,4-trimethyl-1,2,3,4-tetrahydroisoquinolin-7-yl)-1,8-naphthyridin-4-amine] |
| ≤ 1000 | Cc1ccc(Nc2cc(C(C)C)nc3nc(-c4ncccc4C(F)(F)F)ccc23)nc1 [Compound 103, 2-isopropyl-N-(5-methylpyridin-2-yl)-7-[3-(trifluoromethyl)pyridin-2-yl]-1,8-naphthyridin-4-amine] |

The remaining lines, values behind:

| SMILES | IC50 [nM] |
| --- | --- |
| CC(C)COCc1cc(Nc2ccc(C(F)(F)F)cc2)c2ccc(-c3ncccc3Cl)nc2n1 [Compound 52, 7-(3-chloropyridin-2-yl)-2-(isobutoxymethyl)-N-[4-(trifluoromethyl)phenyl]-1,8-naphthyridin-4-amine] | ≤ 1000 |
| CCCc1cc(Nc2ccc(Cl)cn2)c2ccc(-c3ncccc3C(F)(F)F)nc2n1 [Compound 122, N-(5-chloropyridin-2-yl)-2-propyl-7-[3-(trifluoromethyl)pyridin-2-yl]-1,8-naphthyridin-4-amine] | ≤ 1000 |
| FC(F)(F)c1ccc(Nc2ccnc3nc(-c4ncccc4C(F)(F)F)ccc23)cn1 [Compound 142, 7-[3-(trifluoromethyl)pyridin-2-yl]-N-[6-(trifluoromethyl)pyridin-3-yl]-1,8-naphthyridin-4-amine] | ≤ 1000 |
| COCc1cc(Nc2ccc(C(F)(F)F)cc2)c2ccc(-c3ncccc3F)nc2n1 [Compound 62, 7-(3-fluoropyridin-2-yl)-2-(methoxymethyl)-N-[4-(trifluoromethyl)phenyl]-1,8-naphthyridin-4-amine] | ≤ 1000 |
| COCc1cc(Nc2ccc(Cl)cc2)c2ccc(-c3ncccc3C(F)(F)F)nc2n1 [Compound 8, N-(4-chlorophenyl)-2-(methoxymethyl)-7-[3-(trifluoromethyl)pyridin-2-yl]-1,8-naphthyridin-4-amine] | ≤ 1000 |
| CC(C)COCc1cc(Nc2ccc(S(C)(=O)=O)cc2)c2ccc(-c3ncccc3C(F)(F)F)nc2n1 [Compound 65, 2-(isobutoxymethyl)-N-[4-(methylsulfonyl)phenyl]-7-[3-(trifluoromethyl)pyridin-2-yl]-1,8-naphthyridin-4-amine] | ≤ 1000 |
| C[C@@H]1CN(Cc2cc(Nc3ccc(C(F)(F)F)cc3)c3ccc(-c4ncccc4C(F)(F)F)nc3n2)C[C@H](C)O1 [Compound 24, 2-{[(2R,6S)-2,6-dimethylmorpholin-4-yl]methyl}-N-[4-(trifluoromethyl)phenyl]-7-[3-(trifluoromethyl)pyridin-2-yl]-1,8-naphthyridin-4-amine] | ≤ 1000 |
| CC1CCCN1Cc1cc(Nc2ccc(C(F)(F)F)cn2)c2ccc(-c3ncccc3C(F)(F)F)nc2n1 (stereo not shown) [Compound 93, 2-[(2-methylpyrrolidin-1-yl)methyl]-7-[3-(trifluoromethyl)pyridin-2-yl]-N-[5-(trifluoromethyl)pyridin-2-yl]-1,8-naphthyridin-4-amine] | ≤ 1000 |
| FC(F)(F)c1ccc(Nc2cc(CN3CCOCC3)nc3nc(-c4ncccc4C(F)(F)F)ccc23)nc1 [Compound 91, 2-(morpholin-4-ylmethyl)-7-[3-(trifluoromethyl)pyridin-2-yl]-N-[5-(trifluoromethyl)pyridin-2-yl]-1,8-naphthyridin-4-amine] | ≤ 1000 |
| CC(C)COc1cc(Nc2ccc(C(C)(C)C)cc2)c2ccc(-c3ncccc3C(F)(F)F)cc2n1 [Compound 19, N-(4-tert-butylphenyl)-2-isobutoxy-7-[3-(trifluoromethyl)pyridin-2-yl]quinolin-4-amine] | ≤ 1000 |
| CC(C)COCc1cc(Nc2ccc(C(F)(F)F)cc2)c2ccc(-c3ncccc3C(F)(F)F)nc2n1 [Compound 7, 2-(isobutoxymethyl)-N-[4-(trifluoromethyl)phenyl]-7-[3-(trifluoromethyl)pyridin-2-yl]-1,8-naphthyridin-4-amine] | ≤ 1000 |
| COCc1cc(Nc2ccc(C(F)(F)F)cc2)c2ccc(-c3ncccc3C(F)(F)F)nc2n1 [Compound 2] | ≤ 1000 |
| CC(C)NCc1cc(Nc2ccc(C(F)(F)F)cc2)c2ccc(-c3ncccc3C(F)(F)F)nc2n1 [Compound 58, 2-[(isopropylamino)methyl]-N-[4-(trifluoromethyl)phenyl]-7-[3-(trifluoromethyl)pyridin-2-yl]-1,8-naphthyridin-4-amine] | ≤ 1000 |

Source: patent US7488740B2, “Substituted quinolin-4-ylamine analogues” (Neurogen Corporation, priority 2003, dated 2009)
